Source: patent US9247741B2, “Use of macrocyclic picolinamides as fungicides” (DOW AGROSCIENCES LLC, priority 2013, dated 2016)
Like-named read-outs stand apart in the source and are kept apart here.

Legend:
Type in all cases: in vivo
Puccinia triticina = experiment: Wheat brown rust (PUCCRT) disease control on wheat seedlings; conditions: for pest or weed control at 100 ppm: 100 ppm (high volume); for pest or weed control at 121.5 g/ha: 121.5 g/H (low volume track spray)
Procedure: Technical grades of materials were dissolved in acetone, which were then mixed with nine volumes of water containing 110 ppm Triton X-100. The fungicide solutions were applied onto wheat seedlings using an automated booth sprayer to run-off. All sprayed plants were allowed to air dry prior to further handling. All fungicides were evaluated using the aforementioned method for their activity vs. all target diseases. Wheat leaf blotch and brown rust activity were also evaluated using track spray applications, in which case the fungicides were formulated as EC formulations, containing 0.1% Trycol 5941 in the spray solutions. Wheat plants (variety Yuma) were grown from seed in a greenhouse in 50% mineral soil/50% soil-less Metro mix until the first leaf was fully emerged, with 7-10 seedlings per pot. These plants were inoculated with an aqueous spore suspension of Septoria tritici either prior to or after fungicide treatments. After inoculation the plants were kept in 100% relative humidity (one day in a dark dew chamber followed by two to three days in a lighted dew chamber at 20° C.) to permit spores to germinate and infect the leaf. The plants were then transferred to a greenhouse set at 20° C. for disease to develop. When disease symptoms were fully expressed on the l^st leaves of untreated plants, infection levels were assessed on a scale of 0 to 100 percent disease severity. Percent disease control was calculated using the ratio of disease severity on treated plants relative to untreated plants. Evaluation of Fungicidal Activity: Wheat Brown Rust (Puccinia triticina; Synonym: Puccinia recondite f sp. tritici; Bayer code PUCCRT) Wheat plants (variety Yuma) were grown from seed in a greenhouse in 50% mineral soil/50% soil-less Metro mix until the first leaf was fully emerged, with 7-10 seedlings per pot. These plants were inoculated with an aqueous spore suspension of Puccinia triticina either prior to or after fungicide treatments. After inoculation the plants were kept in a dark dew room at 22° C. with 100% relative humidity overnight to permit spores to germinate and infect the leaf. The plants were then transferred to a greenhouse set at 24° C. for disease to develop. Fungicide formulation, application and disease assessment followed the procedures as described in the Example A.

Uncinula necator = experiment: Grape powdery mildew (UNCINE) disease control; conditions: Erysiphe necator, 24 h, 1 Day Protectant, read-out: UNCINE disease control rating
Procedure: Technical grades of materials were dissolved in acetone, which were then mixed with nine volumes of water containing 110 ppm Triton X-100. The fungicide solutions were applied onto wheat seedlings using an automated booth sprayer to run-off. All sprayed plants were allowed to air dry prior to further handling. All fungicides were evaluated using the aforementioned method for their activity vs. all target diseases. Wheat leaf blotch and brown rust activity were also evaluated using track spray applications, in which case the fungicides were formulated as EC formulations, containing 0.1% Trycol 5941 in the spray solutions. Wheat plants (variety Yuma) were grown from seed in a greenhouse in 50% mineral soil/50% soil-less Metro mix until the first leaf was fully emerged, with 7-10 seedlings per pot. These plants were inoculated with an aqueous spore suspension of Septoria tritici either prior to or after fungicide treatments. After inoculation the plants were kept in 100% relative humidity (one day in a dark dew chamber followed by two to three days in a lighted dew chamber at 20° C.) to permit spores to germinate and infect the leaf. The plants were then transferred to a greenhouse set at 20° C. for disease to develop. When disease symptoms were fully expressed on the l^st leaves of untreated plants, infection levels were assessed on a scale of 0 to 100 percent disease severity. Percent disease control was calculated using the ratio of disease severity on treated plants relative to untreated plants. Evaluation of Fungicidal Activity: Grape Powdery Mildew (Uncinula necator; Bayer Code […]) Grape seedlings (variety Carignane) were grown in soil-less Metro mix, with one plant per pot, and used in the test when approximately one month old. Plants were inoculated 24 hr after fungicide treatment by shaking spores from infected leaves over test plants. Plants were maintained in a greenhouse set at 20° C. until disease was fully developed. Fungicide formulation, application and disease assessment on the sprayed leaves followed the procedures as described in the Example A.

Erysiphe cichoracearum = experiment: Powdery mildew of cucumber (ERYSCI) disease control; conditions: Golovinomyces cichoracearum, 24 h, 1 Day Protectant, read-out: ERYSCI disease control rating
Procedure: Technical grades of materials were dissolved in acetone, which were then mixed with nine volumes of water containing 110 ppm Triton X-100. The fungicide solutions were applied onto wheat seedlings using an automated booth sprayer to run-off. All sprayed plants were allowed to air dry prior to further handling. All fungicides were evaluated using the aforementioned method for their activity vs. all target diseases. Wheat leaf blotch and brown rust activity were also evaluated using track spray applications, in which case the fungicides were formulated as EC formulations, containing 0.1% Trycol 5941 in the spray solutions. Wheat plants (variety Yuma) were grown from seed in a greenhouse in 50% mineral soil/50% soil-less Metro mix until the first leaf was fully emerged, with 7-10 seedlings per pot. These plants were inoculated with an aqueous spore suspension of Septoria tritici either prior to or after fungicide treatments. After inoculation the plants were kept in 100% relative humidity (one day in a dark dew chamber followed by two to three days in a lighted dew chamber at 20° C.) to permit spores to germinate and infect the leaf. The plants were then transferred to a greenhouse set at 20° C. for disease to develop. When disease symptoms were fully expressed on the l^st leaves of untreated plants, infection levels were assessed on a scale of 0 to 100 percent disease severity. Percent disease control was calculated using the ratio of disease severity on treated plants relative to untreated plants. Evaluation of Fungicidal Activity: Powdery Mildew of Cucumber (Erysiphe cichoracearum; Bayer Code […]) Cucumber seedlings (variety Bush Pickle) were grown in soil-less Metro mix, with one plant per pot, and used in the test when 12 to 14 days old. Plants were inoculated with a spore suspension 24 hr following fungicide treatments. After inoculation the plants remained in the greenhouse set at 20° C. until disease was fully expressed. Fungicide formulation, application and disease assessment on the sprayed leaves followed the procedures as described in the Example A.

[1] = 24 h, 1 Day Protectant, read-out: PUCCRT 1DP disease control rating
[2] = 72 h, 3 Day Curative, read-out: PUCCRT 3DC disease control rating

Compound | pest or weed control at 100 ppm (Puccinia triticina; [1]) | pest or weed control at 121.5 g/ha (Puccinia triticina; [1]) | pest or weed control at 100 ppm (Puccinia triticina; [2]) | pest or weed control at 121.5 g/ha (Puccinia triticina; [2]) | pest or weed control at 100 ppm (Uncinula necator) | pest or weed control at 100 ppm (Erysiphe cichoracearum)
CCCO[C@H]1CCC[C@H](NC(=O)c2nccc(OC)c2OC(C)=O)C(=O)O[C@@H](C)[C@@H]1Cc1ccccc1 [Compound 70] | > 70% | > 70% | > 70% | > 70% | > 70% | < 70%
COc1ccnc(C(=O)N[C@H]2CCC[C@H](OCC3CC3)[C@@H](Cc3ccc(F)cc3)[C@H](C)OC2=O)c1OCOC(C)=O [Compound 61] | – | > 70% | – | > 70% | > 70% | < 70%
CCCC[C@H]1[C@H](C)OC(=O)[C@@H](NC(=O)c2nccc(OC)c2OCOC(C)=O)CCC[C@@H]1OCC1CC1 [Compound 73] | – | > 70% | – | > 70% | > 70% | < 70%
COc1ccnc(C(=O)N[C@H]2CCC[C@H](Oc3ccccc3)[C@@H](CCC(C)C)[C@H](C)OC2=O)c1OC(C)=O [Compound 36] | – | > 70% | – | < 70% | > 70% | > 70%
CCCO[C@H]1CCC[C@H](NC(=O)c2nccc(OC)c2OC(C)=O)C(=O)O[C@@H](C)[C@@H]1CCC(C)C [Compound 74, 2-(((3S,7S,8S,9S)-8-isopentyl-9-methyl-2-oxo-7-propoxyoxonan-3-yl)carbamoyl)-4-methoxypyridin-3-yl acetate] | – | > 70% | – | > 70% | > 70% | > 70%
CCCC[C@H]1[C@H](C)OC(=O)[C@@H](NC(=O)c2nccc(OC)c2OCOC(C)=O)CCC[C@@H]1Oc1ccccc1 [Compound 33] | – | > 70% | – | > 70% | > 70% | > 70%
CCCO[C@H]1CCC[C@H](NC(=O)c2nccc(OC)c2OCOC(C)=O)C(=O)O[C@@H](C)[C@@H]1CCC(C)C [Compound 25, ((2-(((3S,7S,8S,9S)-8-isopentyl-9-methyl-2-oxo-7-propoxyoxonan-3-yl)carbamoyl)-4-methoxypyridin-3-yl)oxy)methyl acetate] | – | > 70% | – | > 70% | > 70% | < 70%
COc1ccnc(C(=O)N[C@H]2CCC[C@H](Oc3ccccc3)[C@@H](CCC(C)C)[C@H](C)OC2=O)c1OCOC(C)=O [Compound 40] | – | > 70% | – | > 70% | > 70% | > 70%
